Drawing on patent US10219516B2, “Molecules having pesticidal utility, and intermediates, compositions, and processes, related thereto” (priority 2015, dated 2019), this text covers pest or weed control for 21 compounds.

Where two headings read alike, the source gives them in different places.

Test [1] deals with Cabbage Looper (Trichoplusia ni, TRIPNI). The test can be described thus: Bioassay on Cabbage Looper (CL), 128-well diet tray assay. The format is in vivo. The following applies: Trichoplusia ni. In short, it runs like this:
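Using eight wells per molecule, artificial diet was dosed at 50 μg/cm^2 with compound in 90:10 acetone-water and dried before one to five second-instar larvae were added per well. Covered vented trays were kept at 25° C. with 14:10 light-dark for five to seven days, then per-well percent mortality was recorded and averaged.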

Test [2] has as its system Beet Armyworm (Spodoptera exigua, LAPHEG). The test can be described thus: Bioassay on Beet Armyworm (BAW), 128-well diet tray assay. The format is in vivo. The gist of the method: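 Diet in each of eight wells received 50 μg/cm^2 of test molecule (90:10 acetone-water, dried), then one to five second-instar larvae were added. Mortality (%) was scored after five to seven days at 25° C. under 14:10 light-dark and averaged across the wells.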

Where [3] appears, read: Species CL (Cabbage Looper), read-out: CL (Biological Results, rating).
[4] abbreviates: Species BAW (Beet Armyworm), read-out: BAW (Biological Results, rating).
[5] abbreviates: Cabbage Looper, 128-well diet tray assay, read-out: CL rating.
[6] abbreviates: Beet Armyworm, 128-well diet tray assay, read-out: BAW rating.

Turning to `CC(=O)Nc1ccc(NC(=O)c2cc(NC(=O)[C@H]3[C@H](c4cc(Cl)cc(Cl)c4)C3(Cl)Cl)c(Cl)cc2Cl)cc1` (relative stereo) [F255, trans-N-(4-Acetamidophenyl)-2,4-dichloro-5-(2,2-dichloro-3-(3,5-dichlorophenyl)cyclopropane-1-carboxamido)benzamide], the pest or weed control at 50 µg/cm2 in test [1] (setting [3]) is 0 to 50%; in test [2] (setting [4]), 50 to 100%.

Turning to `N#Cc1ccc(NC(=O)c2cc(NC(=O)[C@H]3[C@H](c4cc(Cl)cc(Cl)c4)C3(Cl)Cl)ccc2Cl)nc1N` (relative stereo) [F292, N-(6-Amino-5-cyanopyridin-2-yl)-2-chloro-5-(trans-2,2-dichloro-3-(3,5-dichlorophenyl)cyclopropane-1-carboxamido)benzamide], the pest or weed control at 50 µg/cm2 in test [1] (setting [3]) and in test [2] (setting [4]) was 50 to 100% in each case.

On to `O=C(Nc1ncncc1F)c1cc(NC(=O)[C@H]2[C@H](c3cc(Cl)cc(Cl)c3)C2(Cl)Cl)ccc1Cl` (relative stereo) [F318, trans-2-Chloro-5-(2,2-dichloro-3-(3,5-dichlorophenyl)cyclopropane-1-carboxamido)-N-(5-fluoropyrimidin-4-yl)benzamide], for which the pest or weed control at 50 µg/cm2 in test [1] (setting [3]) and in test [2] (setting [4]) was 50 to 100% in each case.

On to `Cc1cc(NC(=O)OC(C)(C)C)ccc1NC(=O)c1cc(NC(=O)[C@H]2[C@H](c3cc(Cl)cc(Br)c3)C2(Cl)Cl)ccc1Cl` (relative stereo) [F335, tert-Butyl (4-(5-(trans-3-(3-bromo-5-chlorophenyl)-2,2-dichlorocyclopropane-1-carboxamido)-2-chlorobenzamido)-3-methylphenyl)carbamate], for which the pest or weed control at 50 µg/cm2 in test [1] (setting [3]) and in test [2] (setting [4]) was 50 to 100% each time.

As to `Cc1cc(N)ccc1NC(=O)c1cc(NC(=O)[C@H]2[C@H](c3ccc(Cl)c(Br)c3)C2(Cl)Cl)ccc1Cl` (relative stereo) [F336, N-(4-Amino-2-methylphenyl)-5-(trans-3-(3-bromo-4-chlorophenyl)-2,2-dichlorocyclopropane-1-carboxamido)-2-chlorobenzamide], the pest or weed control at 50 µg/cm2 in test [1] (setting [3]) and in test [2] (setting [4]) was 50 to 100% throughout.

Regarding `Nc1c(F)ccc(NC(=O)c2cc(NC(=O)[C@H]3[C@H](c4ccc(Cl)c(Br)c4)C3(Cl)Cl)ccc2Cl)c1F` (relative stereo) [F338, N-(3-Amino-2,4-difluorophenyl)-5-(trans-3-(3-bromo-4-chlorophenyl)-2,2-dichlorocyclopropane-1-carboxamido)-2-chlorobenzamide], the pest or weed control at 50 µg/cm2 in test [1] (setting [3]) and in test [2] (setting [4]) was 50 to 100% in each case.

For the compound `Nc1ccc([C@H]2[C@H](C(=O)Nc3ccc(Cl)c(C(=O)Nc4ccc(F)cc4)c3)C2(Cl)Cl)cc1` (relative stereo) [F425, 5-(trans-3-(4-aminophenyl)-2,2-dichlorocyclopropane-1-carboxamido)-2-chloro-N-(4-fluorophenyl)benzamide], the pest or weed control at 50 µg/cm2 in test [1] (setting [5]) and in test [2] (setting [6]) was 50 to 100% each time.

In the case of `O=C(Nc1ccc2c(c1)C(=O)NC2=O)c1cc(NC(=O)[C@H]2[C@H](c3cc(Cl)cc(Cl)c3)C2(Cl)Cl)ccc1Cl` (relative stereo) [F439, trans-2-Chloro-5-(2,2-dichloro-3-(3,5-dichlorophenyl)cyclopropane-1-carboxamido)-N-(1,3-dioxoisoindolin-5-yl)benzamide], the pest or weed control at 50 µg/cm2 in test [1] (setting [5]) and in test [2] (setting [6]) was 50 to 100% in each case.

For `O=C(Nc1ccc(-c2ncco2)cc1)c1cc(NC(=O)[C@H]2[C@H](c3cc(Cl)cc(Cl)c3)C2(Cl)Cl)ccc1Cl` (relative stereo) [F446, trans-2-Chloro-5-(2,2-dichloro-3-(3,5-dichlorophenyl)cyclopropane-1-carboxamido)-N-(4-(oxazol-2-yl)phenyl)benzamide], the pest or weed control at 50 µg/cm2 in test [1] (setting [5]) and in test [2] (setting [6]) was 50 to 100% throughout.

For `O=C(Nc1ccc2c(ccn2Cc2ccccc2)c1)c1cc(NC(=O)[C@H]2[C@H](c3cc(Cl)cc(Cl)c3)C2(Cl)Cl)ccc1Cl` (relative stereo) [F458, N-(1-Benzyl-1H-indol-5-yl)-2-chloro-5-(trans)-(2,2-dichloro-3-(3,5-dichlorophenyl)cyclopropane-1-carboxamido)benzamide], the pest or weed control at 50 µg/cm2 in test [1] (setting [5]) and in test [2] (setting [6]) was 50 to 100% in each case.

With `O=C(Nc1ccc2[nH]c(C(F)(F)F)cc2c1)c1cc(NC(=O)[C@H]2[C@H](c3cc(Cl)cc(Cl)c3)C2(Cl)Cl)ccc1Cl` (relative stereo) [F465, 2-Chloro-5-(trans)-(2,2-dichloro-3-(3,5-dichlorophenyl)cyclopropane-1-carboxamido)-N-(2-(trifluoromethyl)-1H-indol-5-yl)benzamide], the pest or weed control at 50 µg/cm2 in test [1] (setting [5]) and in test [2] (setting [6]) was 50 to 100% each time.

Consider `CN(C(=O)OC(C)(C)C)c1cc(NC(=O)c2cc(NC(=O)[C@H]3[C@H](c4cc(Cl)cc(Cl)c4)C3(Cl)Cl)ccc2Cl)ccc1F` (relative stereo) [F471, trans-tert-Butyl (5-(2-chloro-5-(2,2-dichloro-3-(3,5-dichlorophenyl)cyclopropane-1-carboxamido)benzamido)-2-fluorophenyl)(methyl)carbamate], for which the pest or weed control at 50 µg/cm2 in test [1] (setting [5]) and in test [2] (setting [6]) was 50 to 100% throughout.

Regarding `CC(C)(C)OC(=O)n1ccc2cc(NC(=O)c3cc(NC(=O)[C@H]4[C@H](c5cc(Cl)cc(Cl)c5)C4(Cl)Cl)ccc3Cl)ccc21` (relative stereo) [F484, tert-Butyl 5-(2-chloro-5-(trans)-(2,2-dichloro-3-(3,5-dichlorophenyl)cyclopropane-1-carboxamido)benzamido)-1H-indole-1-carboxylate], the pest or weed control at 50 µg/cm2 in test [1] (setting [5]) and in test [2] (setting [6]) was 50 to 100% throughout.

Consider `CC(C)(C)OC(=O)Nc1cccc(NC(=O)c2cc(NC(=O)[C@H]3[C@H](c4cc(Cl)cc(Cl)c4)C3(Cl)Cl)ccc2Cl)n1` (relative stereo) [F505, tert-Butyl (6-(2-chloro-5-(trans-2,2-dichloro-3-(3,5-dichlorophenyl)cyclopropane-1-carboxamido)benzamido)pyridin-2-yl)carbamate], for which the pest or weed control at 50 µg/cm2 in test [1] (setting [5]) and in test [2] (setting [6]) was 50 to 100% in each case.

For the compound `O=C(Nc1ncc(F)cc1F)c1cc(NC(=O)[C@H]2[C@H](c3cc(Cl)cc(C(F)F)c3)C2(Cl)Cl)ccc1Cl` (relative stereo) [F584, 2-Chloro-5-(trans-2,2-dichloro-3-(3-chloro-5-(difluoromethyl)phenyl)cyclopropane-1-carboxamido)-N-(3,5-difluoropyridin-2-yl)benzamide], the pest or weed control at 50 µg/cm2 in test [1] (setting [5]) and in test [2] (setting [6]) was 50 to 100% each time.

Consider `O=C(Nc1ccc(F)cc1)c1cc(NC(=O)[C@H]2[C@H](c3cc(F)cc(Cl)c3)C2(Cl)Cl)ccc1Cl` (relative stereo) [PF1, trans-2-Chloro-5-(2,2-dichloro-3-(3-chloro-5-fluorophenyl)cyclopropane-1-carboxamido)-N-(4-fluorophenyl)benzamide], for which the pest or weed control at 50 µg/cm2 in test [1] (setting [5]) and in test [2] (setting [6]) was 50 to 100% throughout.

In the case of `CN(C(=O)c1cc(NC(=O)[C@H]2[C@H](c3cc(F)cc(Cl)c3)C2(Cl)Cl)ccc1Cl)c1ccc(F)cc1` (relative stereo) [PF2, trans-2-Chloro-5-(2,2-dichloro-3-(3-chloro-5-fluorophenyl)cyclopropane-1-carboxamido)-N-(4-fluorophenyl)-N-methylbenzamide], the pest or weed control at 50 µg/cm2 in test [1] (setting [5]) and in test [2] (setting [6]) was 50 to 100% in each case.

In the case of `CN(C(=O)c1cc(NC(=O)[C@H]2[C@H](c3cc(Cl)cc(Cl)c3)C2(Br)Br)ccc1Cl)c1ccc(F)cc1` (relative stereo) [PF7, trans-2-Chloro-5-(2,2-dibromo-3-(3,5-dichlorophenyl)cyclopropane-1-carboxamido)-N-(4-fluorophenyl)-N-methylbenzamide], the pest or weed control at 50 µg/cm2 in test [1] (setting [5]) and in test [2] (setting [6]) was 50 to 100% throughout.

Take `CN(C(=O)OC(C)(C)C)c1ccc(NC(=O)c2cc(NC(=O)[C@H]3[C@H](c4cc(Cl)cc(Cl)c4)C3(Cl)Cl)ccc2Cl)cc1` (relative stereo) [PF12, trans-tert-Butyl-(4-(2-chloro-5-(2,2-dichloro-3-(3,5-dichlorophenyl)cyclopropane-1-carboxamido)benzamido)phenyl)(methyl)carbamate]: the pest or weed control at 50 µg/cm2 in test [1] (setting [5]) and in test [2] (setting [6]) was 50 to 100% in each case.

As to `CC(=O)N(C)c1ccc(NC(=O)c2cc(NC(=O)[C@H]3[C@H](c4cc(Cl)cc(Cl)c4)C3(Cl)Cl)ccc2Cl)cc1` (relative stereo) [PF14, trans-2-Chloro-5-(2,2-dichloro-3-(3,5-dichlorophenyl)cyclopropane-1-carboxamido)-N-(4-(N-methylacetamido)phenyl)benzamide], the pest or weed control at 50 µg/cm2 in test [1] (setting [5]) and in test [2] (setting [6]) was 50 to 100% in each case.

Consider `COCC(=O)Nc1ccc(NC(=O)c2cc(NC(=O)[C@H]3[C@H](c4cc(Cl)cc(Cl)c4)C3(Cl)Cl)ccc2Cl)cc1` (relative stereo) [PF27, trans-2-Chloro-5-(2,2-dichloro-3-(3,5-dichlorophenyl)cyclopropane-1-carboxamido)-N-(4-(2-methoxyacetamido)phenyl)benzamide], for which the pest or weed control at 50 µg/cm2 in test [1] (setting [5]) and in test [2] (setting [6]) was 50 to 100% throughout.
